Measured values taken from publication PMC6848086, “Light on the cell cycle of the non-photosynthetic bacterium Ramlibacter tataouinensis” (Scientific Reports, 2019).

Target: T1, RtBphP2 (Ramlibacter tataouinensis, UniProt F5Y6C4)
T1 construct: gene Rta_28950; full-length; His6 tag (pBAD/HisB); co-expressed with Bradyrhizobium sp; ORS278 heme oxygenase in E. coli TOP10; dimer
Test: gel electrophoresis with zinc fluorescence; absorption spectra of purified holoprotein
Type: binding
Conditions: covalent; chromophore formed in E. coli by co-expressed heme oxygenase

T1 sequence (F5Y6C4 entry or part of it): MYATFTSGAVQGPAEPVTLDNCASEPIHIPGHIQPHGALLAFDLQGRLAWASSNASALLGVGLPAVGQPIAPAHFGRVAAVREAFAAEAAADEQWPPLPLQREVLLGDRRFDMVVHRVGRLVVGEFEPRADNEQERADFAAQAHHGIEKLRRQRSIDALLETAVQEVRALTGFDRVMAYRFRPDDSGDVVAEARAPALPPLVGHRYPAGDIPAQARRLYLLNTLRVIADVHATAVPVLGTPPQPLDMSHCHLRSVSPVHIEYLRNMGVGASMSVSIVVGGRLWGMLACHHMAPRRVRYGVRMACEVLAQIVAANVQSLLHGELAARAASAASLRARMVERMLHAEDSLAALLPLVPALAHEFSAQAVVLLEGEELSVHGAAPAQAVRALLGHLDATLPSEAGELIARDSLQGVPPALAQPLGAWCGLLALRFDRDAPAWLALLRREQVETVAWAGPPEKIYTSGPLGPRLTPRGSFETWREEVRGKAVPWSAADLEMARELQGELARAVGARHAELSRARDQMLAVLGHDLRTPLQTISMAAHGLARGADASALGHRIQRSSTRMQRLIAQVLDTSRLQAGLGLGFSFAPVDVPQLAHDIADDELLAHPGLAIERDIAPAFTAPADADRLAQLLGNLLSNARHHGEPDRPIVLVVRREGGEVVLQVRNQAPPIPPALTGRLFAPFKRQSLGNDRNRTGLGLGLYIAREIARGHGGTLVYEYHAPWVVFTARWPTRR

C=CC1=C(C)/C(=C/C2=NC(=C\c3[nH]c(/C=C4\NC(=O)C(C)=C4C=C)c(C)c3CCC(=O)O)/C(CCC(=O)O)=C2C)NC1=O [biliverdin]
gel electrophoresis with zinc fluorescence; absorption spectra of purified holop: zinc fluorescence demonstrated that the biliverdin (BV) is covalently bound in both proteins
